{"source": "patent US9782383B2", "about": "“Prophylactic and therapeutic agent for attention-deficit/hyperactivity disorder” (FUJIMOTO CO., LTD., priority 2013, dated 2017)", "key": {"[1]": {"test_system": "human monoamine transporters (DAT, NET, SERT)", "conditions": "highest first; Neuropsychopharmacology 27: 699-711 (2002); cited from earlier work"}, "[2]": {"test_system": "ADHD model rats or normal rats", "conditions": "cited from earlier work; for locomotor activities: increasing doses"}, "[3]": {"conditions": "human, in vivo; cited from earlier work"}, "[4]": {"conditions": "human, in vivo; cited from earlier work", "remark": "listed apart in the source"}, "[5]": {"test_system": "SHRSP/Ezo rats", "assay": "Y-maze test (inattentive behavior)", "type": "in vivo, rat", "method": "(§1) In all the tests described herein, the R configuration (−) substance hydrochloride salt of the compound for use in the invention (hereinafter referred to as “BPAP” in some cases) as the test material and methylphenidate hydrochloride (SIGMA Aldrich) as the comparative drug were dissolved in saline, diluted to a volume of 2 ml/kg before administration, and systemically administered into six-week-old male SHRSP/Ezo rats 30 minutes before behavior tests. Note that BPAP was subcutaneously (s.c.) administered, and methylphenidate was subcutaneously (s.c.) or intraperitoneally (i.p.) administered after the confirmation that there was no difference between the two routes, i.e., the s.c. and i.p. administration.\nThe short-term working memory was evaluated as a spontaneous alternation behavior using a Y-maze (45 (length)×10 (width)×35 cm (height)). The spontaneous alternation is a behavior based on the habit of a rodent preferring to investigate a new arm of the maze rather than returning to one that was previously visited in the Y-maze. In order to select three different arms continuously, it is necessary to remember the previously visited arm. To achieve this, therefore, the short-term working memory is considered indispensable. Because the processes of the short-term working memory are closely related to an appropriate amount of attention toward achievement of the task, the short-term working memory implicates aspects of attention. Thus, the Y-maze test was carried out to evaluate the inattentive behavior in SHRSP/Ezo rats.\nThe spontaneous alternation was measured according to the method by Sarter et al. (Psychopharmacology (Berl), 94:491-5 (1988)) using the following procedure. Under a 200-lux illuminance condition, each rat was placed in the center of the crossing point of the three arms and allowed to enter the maze arm freely for eight-minute test session, and the sequence of arm entries was recorded. The alteration behavior was defined as the consecutive entry into three arms, i.e. the combination of three different arms, with stepwise combinations in the sequence. The percentage obtained by dividing the spontaneous alternation behavior by the total number of arm entries (total arm entries) minus 2 was determined as the spontaneous alternation behavior rate (alternation rate). For example, assuming that the rat has entered the arms A, B, and C of the Y-maze in the order of ACBABACBAB, the spontaneous alternation behavior is five (ACB, CBA, BAC, ACB, and CBA), the total number of arm entries is ten, and the spontaneous alternation behavior rate is 62.5%. To consider the influence of variations in spontaneous alternation behavior rate among groups during the baseline (drug-untreated) period on the drug efficacy evaluation, the first Y-maze test was carried out three days before the drug efficacy evaluation, and grouping was performed based on the result of spontaneous alternation behavior rates in the 1st Y-maze test.\n(§2) Data were represented as the means±standard errors. Student's t-test was used for the statistics analysis, and a P value below 5% was considered statistically significant."}, "[6]": {"test_system": "SHRSP/Ezo rats", "assay": "Open field test (hyperactivity, inner zone spent time)", "type": "in vivo, rat", "method": "as §1\nThe spontaneous locomotor activity in a new environment was evaluated using an open-field apparatus (90 (width)×90 (depth)×40 cm (height), 81 squares).\nIn this experiment, under a 200-lux illuminance condition, rats were placed in the center of the open field and allowed to move freely in the field for a 60-minute test session, and the horizontal activities (crossings: the number of squares crossed) during the exploration was analyzed by a video tracking system for behavioral experiments (LimeLight Actimetrics, USA).\nas §2\nSince the spent time in the inner zones (nine compartments in the center) (inner zone spent time) in the open field test is used for the evaluation of the anxiety level, the spent times per time (sec/15 min) and per behavior (sec/count) corrected with the locomotor activity (total crossings) were analyzed as the secondary evaluation in the open field test (FIG. 3). […] SHRSP/Ezo rats show an increase in spent time in the inner zone at the habituated phase during which hyperactivity was observed, indicating a reduction in anxiety level at the habituated phase. […] However, 0.3 mg/kg of BPAP had no effect on the reduction in anxiety level at habituated phase."}, "[7]": {"test_system": "SHRSP/Ezo rats", "assay": "Elevated-plus maze test (impulsivity)", "type": "in vivo, rat", "method": "as §1\nThe anxiety-related behavior was evaluated using an elevated plus maze (open arm: 50 (length)×10 cm (width), enclosed arm: 50 (length)×10 (width)×40 cm (height), height above the floor: 50 cm). The device is constituted by a wall-less open arm and a wall-surrounding enclosed arm crossing each other at right angles at a height of 50 cm above the floor. An animal staying in an open arm is exposed to anxiety in the elevated wall-less open state. […] The elevated-plus maze test reflects an equilibrium state between the approach behavior (curiosity) and the avoidance behavior driven by anxiety in an animal, and thus is generally used for the evaluation of the anxiety level of an animal.\nIn this experiment, under a 200-lux illuminance condition, a rat was placed in the center of the crossing point of two sets of arms and allowed to enter freely into the maze for a ten-minute test session. The total number of arm entries (total arm entries), the time spent in open arms and the rate of open arm entries were analyzed by a video tracking system for behavioral experiments (LimeLight Actimetrics).\nas §2"}, "[8]": {"test_system": "human monoamine transporters (DAT, NET, SERT)", "assay": "Affinity for human monoamine transporters", "type": "binding", "conditions": "for order of affinities for human monoamine transporters: highest first"}, "[9]": {"test_system": "ADHD model rats or normal rats", "assay": "Locomotor activity in ADHD model rats or normal rats", "type": "in vivo, rat", "conditions": "high dose"}, "[10]": {"test_system": "rats", "assay": "Methamphetamine-seeking behavior in rats"}, "[11]": {"test_system": "ADHD patients", "conditions": "cited from earlier work"}, "[12]": {"conditions": "1 mg/kg as comparative drug (FIG. 1)"}, "[13]": {"conditions": "1 mg/kg as comparative drug (FIG. 2)"}}, "note": "Read-outs that look alike come from different tables or passages of the source.", "data": [{"smiles": "CNCC[C@@H](Oc1ccccc1C)c1ccccc1", "note": "[atomoxetine]", "values": [{"measurement": "order of affinities for human monoamine transporters", "setting": "[1]", "result": "NET>SERT>DAT"}, {"measurement": "locomotor activities during an exploration period", "setting": "[2]", "result": "decreases"}, {"measurement": "locomotor activities", "setting": "[2]", "result": "does not exhibit increases"}, {"measurement": "abdominal pain", "setting": "[3]", "result": 12.2, "unit": "%"}, {"measurement": "headache", "setting": "[3]", "result": 22.3, "unit": "%"}, {"measurement": "dry mouth", "setting": "[4]", "result": 13.8, "unit": "%"}, {"measurement": "headaches", "setting": "[4]", "result": 10.5, "unit": "%"}]}, {"smiles": "CCCNC(CCC)Cc1cc2ccccc2o1", "note": "(single isomer, unassigned; (-)) [BPAP, (−)-1-(benzofuran-2-yl)-2-propylaminopentane]", "values": [{"measurement": "impaired alternation behavior", "setting": "[5]; s.c., 0.03 mg/kg", "result": "no improvement action was observed"}, {"measurement": "total number of arm entries compared with the first trial (Y1)", "setting": "[5]; s.c., 0.03 to 0.3 mg/kg", "result": "significantly decreased"}, {"measurement": "impaired alternation behavior", "setting": "[5]; s.c., 0.1 to 0.3 mg/kg", "result": "significantly improved"}, {"measurement": "locomotor activity at the exploration phase", "setting": "[6]; s.c., 0.3 mg/kg", "result": "no action"}, {"measurement": "locomotor activity at the habituated phase", "setting": "[6]; s.c., 0.3 mg/kg", "result": "no action"}, {"measurement": "reduction in anxiety level (inner zone spent time) at habituated phase", "setting": "[6]; s.c., 0.3 mg/kg", "result": "no effect"}, {"measurement": "increase in behavior at the habituated phase", "setting": "[6]; s.c., 0.01 to 0.1 mg/kg", "result": "significantly inhibited"}, {"measurement": "inner zone spent time at the habituated phase", "setting": "[6]; s.c., 0.01 to 0.1 mg/kg", "result": "significantly reduced"}, {"measurement": "locomotor activity at the exploration phase", "setting": "[6]; s.c., 0.01 to 0.1 mg/kg", "result": "without affecting"}, {"measurement": "rate of open arm entries", "setting": "[7]; s.c., 0.1 mg/kg (P=0.08)", "result": "tendency to reduce"}, {"measurement": "spent time on the open arms per total number of arm entries", "setting": "[7]; s.c., 0.1 mg/kg, secondary analysis", "result": "significantly reduced"}, {"measurement": "extension of the spent time on the open arms", "setting": "[7]; s.c., 0.01 to 0.3 mg/kg", "result": "no effect"}, {"measurement": "relative affinity NET/DAT", "setting": "[8]; compared with methylphenidate", "result": "substantially equal"}, {"measurement": "relative affinity for SERT (SERT/DAT)", "setting": "[8]; compared with methylphenidate", "result": "higher"}, {"measurement": "order of affinities for human monoamine transporters", "setting": "[8]", "result": "DAT>NET>serotonin transporter (SERT)"}, {"measurement": "spontaneous locomotor activity", "setting": "[9]", "result": "increases"}, {"measurement": "methamphetamine-seeking behavior", "setting": "[10]; due to drug-associated cues and methamphetamine-priming", "result": "inhibition action"}, {"measurement": "induction of methamphetamine-seeking behavior (dependence liability)", "setting": "[10]; effective dose", "result": "did not induce"}]}, {"smiles": "COC(=O)C(c1ccccc1)C1CCCCN1", "note": "(stereo not shown) [methylphenidate]", "values": [{"measurement": "reduction in spontaneous alternation behavior rate", "setting": "[5]; [12]", "result": "recovered"}, {"measurement": "total number of arm entries", "setting": "[5]; [12]", "result": "without increasing"}, {"measurement": "increase in the total number of arm entries", "setting": "[5]; i.p., 1 mg/kg, dose validation", "result": "significant exaltation"}, {"measurement": "reduction in spontaneous alternation behavior rate", "setting": "[5]; i.p., 1 mg/kg, dose validation", "result": "improved"}, {"measurement": "increase in the total number of arm entries", "setting": "[5]; i.p., 0.01 and 0.1 mg/kg", "result": "no influence"}, {"measurement": "reduction in spontaneous alternation behavior rate", "setting": "[5]; i.p., 0.01 to 1 mg/kg", "result": "dose-dependently improved"}, {"measurement": "reduction in anxiety level (inner zone spent time) at the habituated phase", "setting": "[6]; 1 mg/kg (FIG. 3)", "result": "no effect"}, {"measurement": "spent time in the inner zone at the exploration phase", "setting": "[6]; 1 mg/kg (FIG. 3)", "result": "significantly increased"}, {"measurement": "hyperactivity during the exploration phase (0 to 15 minutes)", "setting": "[6]; [13]", "result": "worsened"}, {"measurement": "hyperactivity during the habituated phase (15 to 60 minutes)", "setting": "[6]; [13]", "result": "worsened"}, {"measurement": "hyperactivity (horizontal ambulatory) in open field test", "setting": "[6]; i.p., 1 mg/kg", "result": "did not decreased"}, {"measurement": "hyperactivity (horizontal ambulatory) in open field test", "setting": "[6]; i.p., 0.01 and 0.1 mg/kg", "result": "significantly decreased"}, {"measurement": "increase in spontaneous ambulatory in open field test", "setting": "[6]; i.p., 3 and 30 mg/kg", "result": "exacerbated"}, {"measurement": "extension of the spent time on the open arms", "setting": "[7]; 1 mg/kg (FIG. 4)", "result": "did not improve"}, {"measurement": "increase in the rate of open arm entries", "setting": "[7]; 1 mg/kg (FIG. 4)", "result": "did not improve"}, {"measurement": "increase in the total number of arm entries (hyperactivity)", "setting": "[7]; 1 mg/kg (FIG. 4)", "result": "significant worsened"}, {"measurement": "extension of the open arm spent time", "setting": "[7]; i.p., 0.01 to 1 mg/kg", "result": "no statistically significant change"}, {"measurement": "increase in the number of open arm entries", "setting": "[7]; i.p., 0.01 to 1 mg/kg", "result": "no statistically significant change"}, {"measurement": "order of affinities for human monoamine transporters", "setting": "[8]", "result": "DAT>NET>serotonin transporter (SERT)"}, {"measurement": "locomotor activities", "setting": "[2]", "result": "dose-dependent increases"}, {"measurement": "share of ADHD patients for whom the drug is ineffective", "setting": "[11]", "result": "approximately three out of ten"}]}]}
